Laboratory results from patent US11739098B2 (BRISTOL-MYERS SQUIBB COMPANY, priority 2017, dated 2023).

What was measured:
Format in all cases: cell-based
[1] = biological target: T1, human TLR7 (Homo sapiens, UniProt Q9NYK1); assay: TLR7 inhibition reporter assay (HEK-Blue cells, SEAP reporter, gardiquimod stimulation); conditions: HEK-Blue cells overexpressing human TLR7, SEAP reporter, gardiquimod 7.5 μM
T1 construct: host or cells: HEK-Blue cells (HEK293-derived reporter line)
T1 sequence (Q9NYK1 27-1049): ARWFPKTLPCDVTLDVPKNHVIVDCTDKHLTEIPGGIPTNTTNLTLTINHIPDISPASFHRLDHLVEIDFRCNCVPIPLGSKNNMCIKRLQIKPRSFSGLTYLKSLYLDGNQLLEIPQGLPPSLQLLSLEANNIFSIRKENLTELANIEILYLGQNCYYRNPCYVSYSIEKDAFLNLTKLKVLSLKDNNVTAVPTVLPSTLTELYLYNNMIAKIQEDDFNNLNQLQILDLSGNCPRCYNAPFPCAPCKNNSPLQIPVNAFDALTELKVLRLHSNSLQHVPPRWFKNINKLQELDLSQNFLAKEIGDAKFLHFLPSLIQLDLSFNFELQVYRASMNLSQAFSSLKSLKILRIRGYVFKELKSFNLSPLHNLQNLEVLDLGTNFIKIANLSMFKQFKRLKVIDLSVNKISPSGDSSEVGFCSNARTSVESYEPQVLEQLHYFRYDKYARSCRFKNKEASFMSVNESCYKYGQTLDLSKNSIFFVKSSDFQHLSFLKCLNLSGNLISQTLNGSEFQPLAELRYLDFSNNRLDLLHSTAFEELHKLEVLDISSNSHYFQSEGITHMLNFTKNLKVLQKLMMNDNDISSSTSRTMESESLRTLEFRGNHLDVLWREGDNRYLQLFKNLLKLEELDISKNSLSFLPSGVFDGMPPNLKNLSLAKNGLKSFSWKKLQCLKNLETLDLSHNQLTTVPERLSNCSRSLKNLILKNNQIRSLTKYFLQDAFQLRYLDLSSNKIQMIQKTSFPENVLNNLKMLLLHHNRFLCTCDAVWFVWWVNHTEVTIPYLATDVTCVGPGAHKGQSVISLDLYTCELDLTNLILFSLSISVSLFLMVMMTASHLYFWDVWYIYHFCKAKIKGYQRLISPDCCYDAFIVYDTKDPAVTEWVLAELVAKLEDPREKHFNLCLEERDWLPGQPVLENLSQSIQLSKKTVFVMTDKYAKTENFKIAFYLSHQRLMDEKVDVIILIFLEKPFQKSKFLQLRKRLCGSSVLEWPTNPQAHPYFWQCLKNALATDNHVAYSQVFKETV
Summary of the method: (§1)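 Agonists (final): TLR7 gardiquimod 7.5 μM; TLR8 R848 15.9 μM; TLR9 ODN2006 5 nM. HEK-Blue reporter cells, 30 min RT compound pre-incubation, 0.05 nM–50 μM dose range, 22 h at 37 °C, colorimetric SEAP detection medium. % inhibition relative to agonist+DMSO and known-inhibitor wells.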

[2] = biological target: T2, human TLR8 (Homo sapiens, UniProt Q9NR97); assay: TLR8 inhibition reporter assay (HEK-Blue cells, SEAP reporter, R848 stimulation); conditions: HEK-Blue cells overexpressing human TLR8, SEAP reporter, R848 15.9 μM
T2 construct: host or cells: HEK-Blue cells (HEK293-derived reporter line)
T2 sequence (Q9NR97 27-1041): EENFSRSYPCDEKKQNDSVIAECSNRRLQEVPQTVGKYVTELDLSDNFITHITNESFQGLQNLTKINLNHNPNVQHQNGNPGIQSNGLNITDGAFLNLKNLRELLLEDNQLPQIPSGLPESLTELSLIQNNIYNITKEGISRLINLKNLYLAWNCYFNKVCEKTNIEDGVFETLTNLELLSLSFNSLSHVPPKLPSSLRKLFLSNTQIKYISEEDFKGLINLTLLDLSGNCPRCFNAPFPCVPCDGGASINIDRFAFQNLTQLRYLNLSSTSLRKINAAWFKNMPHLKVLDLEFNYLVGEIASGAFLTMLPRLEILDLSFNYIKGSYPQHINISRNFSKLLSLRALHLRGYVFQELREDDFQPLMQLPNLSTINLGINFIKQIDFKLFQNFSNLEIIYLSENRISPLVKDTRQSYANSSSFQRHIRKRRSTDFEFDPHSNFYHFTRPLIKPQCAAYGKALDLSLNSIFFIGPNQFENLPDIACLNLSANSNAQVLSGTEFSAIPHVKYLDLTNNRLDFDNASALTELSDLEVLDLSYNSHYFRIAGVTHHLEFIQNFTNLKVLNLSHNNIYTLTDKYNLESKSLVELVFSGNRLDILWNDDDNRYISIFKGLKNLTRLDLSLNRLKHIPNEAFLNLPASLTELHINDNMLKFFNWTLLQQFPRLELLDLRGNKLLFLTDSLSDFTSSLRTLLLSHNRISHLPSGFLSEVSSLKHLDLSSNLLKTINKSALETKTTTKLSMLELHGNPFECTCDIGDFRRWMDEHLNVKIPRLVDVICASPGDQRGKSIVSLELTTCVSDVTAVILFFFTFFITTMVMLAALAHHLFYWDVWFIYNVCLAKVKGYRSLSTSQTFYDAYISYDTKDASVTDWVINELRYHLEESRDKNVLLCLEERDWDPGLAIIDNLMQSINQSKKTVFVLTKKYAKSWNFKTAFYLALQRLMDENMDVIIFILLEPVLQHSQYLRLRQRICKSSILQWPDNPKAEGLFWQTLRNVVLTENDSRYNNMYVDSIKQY
Summary of the method: as §1

[3] = biological target: T3, human TLR9 (Homo sapiens, UniProt Q9NR96); assay: TLR9 inhibition reporter assay (HEK-Blue cells, SEAP reporter, ODN2006 stimulation); conditions: HEK-Blue cells overexpressing human TLR9, SEAP reporter, ODN2006 5 nM
T3 construct: host or cells: HEK-Blue cells (HEK293-derived reporter line)
T3 sequence (Q9NR96 26-1032): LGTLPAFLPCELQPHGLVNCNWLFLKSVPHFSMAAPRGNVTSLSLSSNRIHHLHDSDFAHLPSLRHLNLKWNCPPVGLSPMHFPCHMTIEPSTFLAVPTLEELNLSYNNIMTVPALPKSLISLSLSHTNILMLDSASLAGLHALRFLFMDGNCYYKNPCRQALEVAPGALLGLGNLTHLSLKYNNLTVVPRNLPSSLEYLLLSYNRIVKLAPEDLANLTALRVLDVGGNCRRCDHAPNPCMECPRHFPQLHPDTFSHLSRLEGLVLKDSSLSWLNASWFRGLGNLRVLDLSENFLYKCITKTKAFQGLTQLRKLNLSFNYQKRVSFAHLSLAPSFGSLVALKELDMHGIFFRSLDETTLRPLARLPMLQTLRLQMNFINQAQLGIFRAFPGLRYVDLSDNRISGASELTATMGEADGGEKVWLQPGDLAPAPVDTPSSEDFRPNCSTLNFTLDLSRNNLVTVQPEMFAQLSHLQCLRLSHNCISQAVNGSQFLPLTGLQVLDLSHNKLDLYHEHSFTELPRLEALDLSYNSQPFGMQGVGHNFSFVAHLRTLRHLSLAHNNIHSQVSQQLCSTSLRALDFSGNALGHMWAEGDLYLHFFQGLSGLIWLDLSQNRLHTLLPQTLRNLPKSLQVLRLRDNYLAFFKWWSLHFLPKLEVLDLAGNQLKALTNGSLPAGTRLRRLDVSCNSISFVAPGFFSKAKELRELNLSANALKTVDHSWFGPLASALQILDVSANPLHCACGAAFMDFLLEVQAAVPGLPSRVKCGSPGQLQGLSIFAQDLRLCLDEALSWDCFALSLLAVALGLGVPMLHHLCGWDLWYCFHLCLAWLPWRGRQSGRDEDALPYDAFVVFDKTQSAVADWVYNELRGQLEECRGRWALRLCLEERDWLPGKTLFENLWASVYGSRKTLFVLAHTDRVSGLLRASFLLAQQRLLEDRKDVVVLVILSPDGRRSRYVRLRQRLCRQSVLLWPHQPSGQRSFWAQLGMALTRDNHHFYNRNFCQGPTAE
Summary of the method: as §1

SMILES	IC50 [1] [nM]	IC50 [2] [nM]	IC50 [3] [nM]
CC(C)c1c(-c2cn3cnnc3c(O)n2)[nH]c2ccc(C3CCNCC3)cc12 [Example 34, 6-(3-isopropyl-5-(piperidin-4-yl)-1H-indol-2-yl)-[1,2,4]triazolo[4,3-a]pyrazin-8-ol]	1000 to 50000	> 3130	1000 to 50000
CCc1c(-c2ccnc3[nH]ncc23)[nH]c2ccc(C3CCN(Cc4cc(C)n[nH]4)CC3)cc12 [Example 900, 4-(3-ethyl-5-(1-((3-methyl-1H-pyrazol-5-yl)methyl)piperidin-4-yl)-1H-indol-2-yl)-1H-pyrazolo[3,4-b]pyridine]	100 to 1000	< 100	1000 to 50000
CNC(=O)CN1CCC(c2ccc3[nH]c(-c4cc(C)c5nccn5c4)c(C(C)C)c3c2)CC1 [Example 397, 2-(4-(3-isopropyl-2-(8-methylimidazo[1,2-a]pyridin-6-yl)-1H-indol-5-yl)piperidin-1-yl)-N-methylacetamide]	< 100	< 100	100 to 1000
Cc1cc(-c2[nH]c3ccc(C4CCN(C(=O)CN(C)C5CC5)CC4)cc3c2C(C)C)cn2nnnc12 [Example 483, 2-(cyclopropyl(methyl)amino)-1-(4-(3-isopropyl-2-(8-methyltetrazolo[1,5-a]pyridin-6-yl)-1H-indol-5-yl)piperidin-1-yl)ethan-1-one]	< 100	< 100	1000 to 50000
Cc1cn2cc(-c3[nH]c4ccc(C5CCN(CC(=O)N(C)C)CC5)cc4c3C(C)C)c(C)cc2n1 [Example 375, 2-(4-(2-(2,7-dimethylimidazo[1,2-a]pyridin-6-yl)-3-isopropyl-1H-indol-5-yl)piperidin-1-yl)-N,N-dimethylacetamide]	< 100	100 to 1000	< 100
CC(C)c1c(-c2ccnc3[nH]ncc23)[nH]c2cc(F)c(C3CCN(CC4CCN(C(C)C)C4)CC3)cc12 (stereo not drawn) [Example 852, 4-(6-fluoro-3-isopropyl-5-(1-((1-isopropylpyrrolidin-3-yl)methyl)piperidin-4-yl)-1H-indol-2-yl)-1H-pyrazolo[3,4-b]pyridine]	< 100	< 100	100 to 1000
CCc1c(-c2ccnc3c(N)n[nH]c23)[nH]c2ccc(C3CCNCC3)cc12 [Example 238, 7-(3-ethyl-5-(piperidin-4-yl)-1H-indol-2-yl)-1H-pyrazolo[4,3-b]pyridin-3-amine]	< 100	100 to 1000	1000 to 50000
Cc1cc(-c2[nH]c3ccc(C4CCN(CC(=O)N(C)C)CC4)cc3c2C(C)C)cc2nccnc12 [Example 395, 2-(4-(3-isopropyl-2-(8-methylquinoxalin-6-yl)-1H-indol-5-yl)piperidin-1-yl)-N,N-dimethylacetamide]	< 100	< 100	1000 to 50000
CNC(=O)CN1CCC(c2ccc3[nH]c(-c4cccn5ncnc45)c(C(C)C)c3c2)CC1 [Example 361, 2-(4-(2-([1,2,4]triazolo[1,5-a]pyridin-8-yl)-3-isopropyl-1H-indol-5-yl)piperidin-1-yl)-N-methylacetamide]	100 to 1000	100 to 1000	1000 to 50000
Cc1cc(-c2[nH]c3ccc(C4CCN(CC(=O)N(C)C)CC4)cc3c2C(C)C)cc2cccnc12 [Example 435, 2-(4-(3-isopropyl-2-(8-methylquinolin-6-yl)-1H-indol-5-yl)piperidin-1-yl)-N,N-dimethylacetamide]	< 100	< 100	1000 to 50000
Cc1cc2cc(-c3[nH]c4ccc(C5CCN(CC(=O)N(C)C)CC5)cc4c3C(C)C)ccn2n1 [Example 323, 2-(4-(3-isopropyl-2-(2-methylpyrazolo[1,5-a]pyridin-5-yl)-1H-indol-5-yl)piperidin-1-yl)-N,N-dimethylacetamide]	100 to 1000	1000 to 50000	1000 to 50000
